# From article PMC12040169 (PLOS Biology, 2025)
# Test: in vitro
# Settings: human, hela cells, % viability
row,Compound,"viability at 28.5 h, 10 µM [%]"
1,CC(=O)Nc1cccc(NC(=O)N2CCN(Cc3ccccc3)CC2)c1 [CBK155643],98
2,CC(C)CC(NC(=O)Cc1cccc(O)c1)c1nnc2n1CCNCC2 (stereo not drawn) [CBK307183],98.3
3,C(=C\c1ccc(-c2nnc(CSCCOc3ccccc3)o2)cc1)/CN1CCCC1 [CBK081376],98.5
4,CC(=O)N1CCC[C@H]2NC(=O)CNC(=O)C3(C/C=C/C[C@H]21)CCN(C(=O)C1CCC1)CC3 [CBK292177],109
5,COCC(C)NC(=O)c1cc(-c2cccs2)nc2onc(C)c12 (stereo not drawn) [CBK306473],104
6,CC1(COC(=O)N2CCC(OCc3cnc(-c4ccc(S(C)(=O)=O)cc4)cn3)CC2)COC1 [CBK172009],86.7
7,NS(=O)(=O)c1ccc(Nc2nc(-c3cccs3)cs2)cc1 [CBK262502],96.2
8,Cc1nnc(SCc2ccc(CSc3nnc(C)n3N)cc2)n1N [CBK265561],106
9,CCOC(=O)c1cnc(NS(=O)(=O)c2cccc(Cl)c2C)nc1C [CBK004707],105
10,Cn1ncc2c(=O)n(Cc3noc(-c4ccco4)n3)cnc21 [CBK305053],97.1
11,CC(C)(C)NC(=O)CNS(=O)(=O)c1ccccc1 [CBK265807],85.5
12,OCCN(CCO)CC1CC2C=CC1C2 (stereo not drawn) [CBK261874],105
13,O=C(CN1C2CCC1CC(O)(c1ccco1)C2)N1CCCCC1 (stereo not drawn) [CBK284093],90.3
14,O=C(O)C1(NCc2ccccc2Cl)CCCCC1 [CBK287269],78.9
15,O=c1nc2n(Cc3ccccc3)c3ccccc3cc-2c(=O)[nH]1 [CBK287958],79.8
16,CN(Cc1cnc(-c2ccncc2)cn1)C1CCN(C(=O)OC(C)(C)C)CC1 [CBK172979],93.4
17,CCCNC(=O)Cn1nc(CC)n2c(cc3sccc32)c1=O [CBK284030],89.3
18,Cc1cc(N2CCCC(C(=O)N3CCOCC3)C2)nc(N)n1 (stereo not drawn) [CBK305985],76.4
19,CC(=O)N1CCOc2ccccc21 [CBK050388],92.7
20,COC(=O)CCC(=O)N1CCCC2(CCN(C(=O)c3ccoc3)C2)C1 (stereo not drawn) [CBK160988],100
21,Cc1cccc(C)c1NC(=O)CN1CCC(Oc2cncc(OCC3COc4ccccc4O3)n2)C1 (stereo not drawn) [CBK084373],98.5
22,CC(C)CN1CC(C(=O)N(C)CC2OCCc3ccccc32)CC1=O (stereo not drawn) [CBK282093],102
23,O=C(C1CCC1)N1CC(n2nc(-c3ccccc3)ccc2=O)C1 [CBK284624],79.2

row,Compound,"viability at 28.5 h, 10 µM [%]"
1,CC(O)CNCCNCc1cccs1 (stereo not drawn) [CBK278279C],109
2,COc1cc(Cl)cc(/C=N\NC(=O)C2C(=O)NCC2c2ccccc2)c1O (stereo not drawn) [CBK262825],91.8
3,CC(C)/N=C1/N[C@@H]2CS(=O)(=O)C[C@H]2O1 [CBK019692G],87
4,Cc1cc(CN(C)Cc2c(-c3ccccc3)nn(C)c2C)n[nH]1 [CBK281707],88.8
5,O=C(O)c1cccc(NC(=S)NC(=O)c2cccnc2)c1 [CBK265739],94.5
6,Cc1cc2nnc(SC(C)c3nc(-c4ccccc4)no3)n2c(C)n1 (stereo not drawn) [CBK298306],91.7
7,COc1ccc(C(C)c2cc3c(cc2OCCO)OCO3)c(F)c1 (stereo not drawn) [CBK200111],60.4
8,COc1ccc(-c2cc(C(=O)Nc3nc4ccccc4[nH]3)cnc2-c2ccc(F)cc2)cn1 [CBK036617],98.6
9,O=C1C=C(c2ccc([N+](=O)[O-])cc2)Nc2nonc2N1 [CBK261487],89.4
10,Cc1cc(=O)nc(N/C(N)=N/c2cccc([N+](=O)[O-])c2)[nH]1 [CBK264857],102
11,Cc1ccc(CNCCNCCO)s1 [CBK278168C],108
12,Cc1nccn1CC(=O)N1CCCC1(C)C(=O)NC1CCCC1 (stereo not drawn) [CBK281539],98.7
13,O=C(O)CSc1nc2c(-c3ccco3)c3c(nc2o1)CCCC3 [CBK269266],104
14,CC1CCC(C(N)=O)CN1C(=O)c1ccc(Oc2cccc(Br)c2)nc1 (stereo not drawn) [CBK306005],106
15,Cc1ccc(S(=O)(=O)Nc2c(C(=O)O)sc3ncccc23)cc1[N+](=O)[O-] [CBK049983],91.6
16,CCOCCCNC(=O)c1cnn2c(C)c(Cc3cccnc3)c(C)nc12 [CBK162152],100
17,O=C(c1cncnc1)N1CCCc2ccccc21 [CBK200259],91.4
18,NCc1ccc(-c2nc3ccccc3[nH]2)nc1 [CBK024396C],87.7
19,O=C(Cc1c(F)cccc1F)Nc1ccc2[nH]ccc2c1 [CBK144712],120
20,OCCN(Cc1cccs1)Cc1c[nH]nc1-c1cccs1 [CBK282599],86
21,O=C(NCCn1nc2c(cc1=O)CCCCC2)c1ccc(F)cc1 [CBK283279],93.3
22,Nc1ncc(-c2cccc(C(=O)O)c2)nc1N1CCOCC1 [CBK063415],101
23,COc1ccc(S(=O)(=O)n2ccn(-c3ccc(Oc4ccccc4)cc3)c2=O)cc1OC [CBK106649],86.9

row,Compound,"viability at 28.5 h, 10 µM [%]"
1,O=C(Nc1ccc(-n2cc(Cl)cn2)cc1)c1ccncc1 [CBK270249],88.2
2,CSc1nnc2c(n1)OC(/C=C/c1ccccc1)N(C(C)=O)c1ccccc1-2 (stereo not drawn) [CBK264453],99.7
3,COc1ccccc1C(=O)N1CCN(c2nc3c(s2)c(C)nn3C)CC1 [CBK306836],86.6
4,NC(=O)C1(Cc2cccc(-c3cccs3)c2)CCN(C(=O)Cc2cccc(F)c2)CC1 [CBK285783],98
5,O=[N+]([O-])c1ccc(CN2CCC(Oc3nccnc3OC3CCCCC3)CC2)cc1 [CBK082861T],90.4
6,NC(=O)C1CCN(C2CC(=O)NC2=O)CC1 (stereo not drawn) [CBK263290],90.3
7,CS(=O)(=O)c1ccc(Cn2cc(CN3CCC(Sc4ccccn4)CC3)nn2)cc1 [CBK149475],98.4
8,CC(=O)c1c(C)oc2ccc(O)c(CN3CCOCC3)c12 [CBK160396],104
9,Cc1ccc(-c2cc(C(=O)NC3CN4CCC3CC4)[nH]n2)o1 (stereo not drawn) [CBK283276],104
10,COc1ccccc1Nc1nc(N2CCOCC2)nc(N2CCOCC2)n1 [CBK287731],111
11,COCCNC(=O)c1cnc(-c2ccccc2)c(-c2cccnc2)c1 [CBK037515],106
12,Cc1cc(C)n(CCNC(=O)c2ncoc2-c2ccc(F)cc2)n1 [CBK282356],83.2
13,Cc1ccc(C)c(C2CCCN2C(=O)Cn2cccc(C(=O)NCc3ccccc3)c2=O)c1 (stereo not drawn) [CBK286062],78.5
14,O=C(CCCOc1ccc(Cl)cc1Cl)Nc1ccc(O)cc1C(=O)O [CBK131688],104
15,CC(=O)c1ccc(NC(=O)NC[C@H]2C[C@@H]3CC[N@]2C[C@@H]3CN2CCCCC2)cc1 [CBK288766],92.3
16,Cc1cc(=O)n2ncnc2n1COCCO [CBK262919],97.4
17,O=C(O)C1C2C=CC(C2)C1C(=O)N1CCN(Cc2ccc(Cl)cc2)CC1 (stereo not drawn) [CBK270318],83.8
18,Cc1nc(SCC(N)=O)nc(C)c1CCC(=O)NCc1ccc(F)cc1 [CBK295201],88.5
19,COc1cccc2ccn(S(=O)(=O)c3ccsc3C(=O)O)c12 [CBK003636],96.1
20,Cc1csc(C(Cc2cccs2)NC(=O)C2CCOC2)n1 (stereo not drawn) [CBK285123],106
21,O=C(c1cc(S(=O)(=O)N2CCOCC2)ccc1Cl)N1CCCC(CO)C1 (stereo not drawn) [CBK304236],104
22,O=C(COc1ccccc1)Nc1nnc(-c2ccccc2)o1 [CBK287599],99.8
23,CCCc1[nH]nc(O)c1Cc1ccccc1C(F)(F)F [CBK075037],92.7

row,Compound,"viability at 28.5 h, 10 µM [%]"
1,CCCN(Cc1nccn1C)C(=O)Cn1nc(C)c2ccccc2c1=O [CBK307441],95.4
2,O=C(C[C@@H]1O[C@H](CNS(=O)(=O)c2ccccc2)[C@@H](O)[C@H]1O)N1CCCC1 [CBK288909],108
3,Nc1nc2c(nc(SCCc3ccccc3)n2C2OC(CO)C(O)C2O)c(=O)[nH]1 (stereo not drawn) [CBK268686],101
4,COc1ccc([C@@]23CC[C@@H](NC(=O)c4ccc5occc5c4)C[C@@H]2N(C)CC3)cc1OC [CBK074253T],99
5,CCc1cc(Br)ccc1S(=O)(=O)Nc1cccc2cccnc12 [CBK045012],87.8
6,COCCSCc1cn2cc(Br)ccc2n1 [CBK306361],96.5
7,COc1ccc(-c2cc(N3CCN(CCN4CCCC4)CC3)ncn2)cc1OC [CBK091173],94.5
8,Cc1nc(N)nc(N2CCN(C)CC2)n1 [CBK015681],100
9,NC(=O)N/N=C/c1ccncc1 [CBK260922],107
10,C/C(=N\NC(=O)C(C)Sc1ncccn1)C(C)(C)C (stereo not drawn) [CBK020243],104
11,CN(C)S(=O)(=O)NNC(=O)c1c[nH]c2ccccc12 [CBK267698],102
12,CC1(C)C[C@H](NC(=O)c2ccccc2)[C@@]2(CCC(=O)NC3CC3)CC[C@](C)(O)C[C@@H]12 [CBK289045],92.6
13,CCNc1ccn([C@H]2C[C@@H](O)[C@@H](CO)O2)c(=O)n1 [CBK201311],95.2
14,C[C@]12CN(Cc3cccc(C#Cc4ccccc4)c3)C[C@H]1C(=O)Nc1ccccc1C(=O)N2 [CBK286403],94.9
15,Cc1cc(C)nc(NC(=O)OCCN2CCN(C)CC2)c1 [CBK138235],92.2
16,CC(C)(C)c1ccc(NC(=O)N2CCCN(Cc3ccccc3)CC2)cc1 [CBK085876],116
17,CCOC(=O)c1cn(CC)c2cc(N3CCOCC3)c(F)cc2c1=O [CBK307142],95.7
18,Cc1ccccc1OCC(=O)Nc1ccc(C(=O)O)c(Cl)c1 [CBK287027],83.6
19,COc1ccc(C(=O)N2CCC3(CCCN(CCCn4c(=O)[nH]c5ccccc54)C3)C2)cc1OC (stereo not drawn) [CBK132856],93.1
20,S=c1[nH]cnc2sc3c(c12)CCCC3 [CBK027787],73.7

# Same assay, conditions: human, hela cells, % viability, bulk resorufin, single well
row,Compound,"viability at 28.5 h, 10 µM [%]"
1,COc1cc(/C=C2/C(=O)NC(=O)N(c3ccc(C)c(Cl)c3)C2=O)ccc1OC(C)C [CBK265156],118
